target: Metabotropic glutamate receptor 4 (Homo sapiens, UniProt Q14833); assay: Receptor Activity Assay: The disclosed compounds and compositions can be evaluated for their ability to act as a potentiator of metabotropic glutamate receptor activity, in particular mGluR4 activity, by any suitable known methodology known in the art. For example, Chinese Hamster Ovary (CHO) cells transfected with human mGluR4 or HEK cells co-transfected with rat mGluR4 and the G-protein regulated Inwardly Rectifying Potassium channel (GIRK) were plated in clear bottom assay plates for assay in a Hamamatsu FDSS Fluorometric Plate Reader. The cells were loaded with either a Ca2+-sensitive fluorescent dye or the thallium responsive dye and the plates were washed and placed into a suitable kinetic plate reader. For human mGluR4 assays, a fluorescence baseline was established for 3-5 seconds, the disclosed compounds were then added to the cells, and the response in cells was measured.; format: functional, cell-based, HEK293
Sequence (Q14833 whole entry): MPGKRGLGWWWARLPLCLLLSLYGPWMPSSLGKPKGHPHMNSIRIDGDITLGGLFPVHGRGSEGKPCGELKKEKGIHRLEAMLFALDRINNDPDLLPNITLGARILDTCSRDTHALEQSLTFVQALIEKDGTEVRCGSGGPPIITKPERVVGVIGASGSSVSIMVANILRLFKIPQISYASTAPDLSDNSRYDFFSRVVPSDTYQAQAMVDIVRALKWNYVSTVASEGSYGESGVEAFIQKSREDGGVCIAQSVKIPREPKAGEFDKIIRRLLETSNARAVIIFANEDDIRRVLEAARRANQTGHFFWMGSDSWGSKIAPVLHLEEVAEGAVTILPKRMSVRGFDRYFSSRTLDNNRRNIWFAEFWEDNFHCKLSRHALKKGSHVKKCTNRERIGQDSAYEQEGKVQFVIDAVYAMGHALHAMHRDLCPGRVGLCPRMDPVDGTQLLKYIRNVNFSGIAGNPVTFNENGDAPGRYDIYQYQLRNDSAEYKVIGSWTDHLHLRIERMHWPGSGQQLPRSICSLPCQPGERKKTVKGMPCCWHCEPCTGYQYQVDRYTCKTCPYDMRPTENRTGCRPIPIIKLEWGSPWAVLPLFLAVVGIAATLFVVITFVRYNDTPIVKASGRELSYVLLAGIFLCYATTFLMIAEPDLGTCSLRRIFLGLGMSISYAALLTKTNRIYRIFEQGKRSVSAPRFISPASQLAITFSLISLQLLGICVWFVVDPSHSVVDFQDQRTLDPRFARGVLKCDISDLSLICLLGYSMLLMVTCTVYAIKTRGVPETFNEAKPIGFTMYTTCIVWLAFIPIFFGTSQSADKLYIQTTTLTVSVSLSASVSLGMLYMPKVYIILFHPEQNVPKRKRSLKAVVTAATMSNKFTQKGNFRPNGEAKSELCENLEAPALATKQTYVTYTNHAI

Row | Compound | EC50 [nM]
1 | O=C(Nc1ncc(S(=O)(=O)Cc2ccccc2Cl)s1)c1ccccn1 | > 10000
2 | Cc1nc(NC(=O)c2ccccn2)sc1S(=O)(=O)Cc1ccc(F)cc1F | 1010
3 | O=C(Nc1nc(C(F)(F)F)c(S(=O)(=O)Cc2ccc(F)cc2F)s1)c1ccccn1 | 1730
4 | Cc1ccccc1CS(=O)(=O)c1sc(NC(=O)c2ccccn2)nc1C | 709
5 | CCc1nc(NC(=O)c2ccccn2)sc1S(=O)(=O)Cc1ccc(Cl)cc1Cl | 939
6 | O=C(Nc1nc(C2CC2)c(S(=O)(=O)Cc2ccccc2Cl)s1)c1ccccn1 | 2980
7 | O=C(Nc1nc(C(F)(F)F)c(S(=O)(=O)Cc2c(F)cccc2F)s1)c1ccccn1 | 1060
8 | O=C(Nc1nc(C2CC2)c(S(=O)(=O)Cc2c(F)cccc2F)s1)c1ccccn1 | > 10000
9 | COc1ccc(CS(=O)(=O)c2sc(NC(=O)c3ccccn3)nc2C)cc1 | 1960
10 | O=C(Nc1ncc(SCc2ccc(Cl)cc2Cl)s1)c1ccccn1 | 5000
11 | CC(C)c1nc(NC(=O)c2ccccn2)sc1S(=O)(=O)C(C)c1ccccc1F (stereo not given) | 9570
12 | Cc1nc(NC(=O)c2ccccn2)sc1S(=O)(=O)Cc1ccc(F)cc1 | 1510
13 | Cc1nc(NC(=O)c2ccccn2)sc1S(=O)(=O)Cc1ccc(F)c(Cl)c1 | 2350
14 | Cc1nc(NC(=O)c2ccccn2)sc1S(=O)(=O)Cc1ccccc1F | 1330
15 | O=C(Nc1nc(C(F)F)c(S(=O)(=O)Cc2c(F)cccc2F)s1)c1ccccn1 | 683
16 | Cc1ccc(S(=O)(=O)c2sc(NC(=O)c3ccccn3)nc2C)cc1 | 1610
17 | O=C(Nc1nc(C2CC2)c(S(=O)(=O)Cc2ccc(F)cc2F)s1)c1ccccn1 | 1050
18 | Cc1nc(NC(=O)c2ccccn2)sc1S(=O)(=O)Cc1ccc(F)c(F)c1 | 937
19 | Cc1cccc(S(=O)(=O)c2sc(NC(=O)c3ccccn3)nc2C)c1 | 6970

Row | Compound | EC50 [nM]
20 | O=C(Nc1nc(C2CC2)c(S(=O)(=O)Cc2ccc(Cl)cc2F)s1)c1ccccn1 | 1290
21 | Cc1nc(NC(=O)c2ccccn2)sc1S(=O)(=O)Cc1cccc(Cl)c1 | 1390
22 | CC(C)c1nc(NC(=O)c2ccccn2)sc1S(=O)(=O)C(C)c1ccccc1Cl (stereo not given) | 3750
23 | CC(C)c1nc(NC(=O)c2ccccn2)sc1S(=O)(=O)Cc1ccccc1F | 3660
24 | CC(C)c1nc(NC(=O)c2ccccn2)sc1S(=O)(=O)Cc1ccc(Cl)cc1F | 2930
25 | CC(C)c1nc(NC(=O)c2ccccn2)sc1S(=O)(=O)Cc1ccc(Cl)cc1Cl | 3300
26 | CC(C)c1nc(NC(=O)c2ccccn2)sc1S(=O)(=O)Cc1ccccc1Cl | 1950
27 | Cc1nc(NC(=O)c2ccccn2)sc1S(=O)(=O)C(C)c1ccccc1Cl (stereo not given) | 3230
28 | O=C(Nc1ncc(SCc2ccc(Cl)cc2F)s1)c1ccccn1 | 8240
29 | O=C(Nc1nc(CO)c(S(=O)(=O)Cc2c(F)cccc2F)s1)c1ccccn1 | 8810
30 | Cc1nc(NC(=O)c2ccccn2)sc1S(=O)(=O)Cc1cccc(Cl)c1F | 535
31 | O=C(Nc1nc(C2CC2)c(S(=O)(=O)Cc2ccc(Cl)cc2Cl)s1)c1ccccn1 | > 10000
32 | O=C(Nc1nnc(S(=O)(=O)Cc2ccccc2)s1)c1ccccn1 | > 10000
33 | Cc1nc(NC(=O)c2ccccn2)sc1S(=O)(=O)Cc1cc(F)ccc1F | 1070
34 | Cc1nc(NC(=O)c2ccccn2)sc1S(=O)(=O)Cc1ccccc1C(F)(F)F | 1020
35 | Cc1nc(NC(=O)c2ccccn2)sc1S(=O)(=O)Cc1cccc(C(F)(F)F)c1 | 2460
36 | CC(C)c1nc(NC(=O)c2ccccn2)sc1S(=O)(=O)Cc1ccc(F)cc1F | 3110
37 | Cc1nc(NC(=O)c2ccccn2)sc1S(=O)(=O)Cc1ccc(C(C)C)cc1 | 1050
38 | Cc1nc(NC(=O)c2ccccn2)sc1S(=O)(=O)C(C)c1ccccc1F (stereo not given) | 4780

Now those with a lower EC50, led by results:

Row | EC50 [nM] | Compound
39 | 504 | Cc1nc(NC(=O)c2ccccn2)sc1S(=O)(=O)Cc1ccccc1Cl
40 | 497 | O=C(Nc1nc(C(F)(F)F)c(S(=O)(=O)Cc2ccc(Cl)cc2Cl)s1)c1ccccn1
41 | 488 | CCc1nc(NC(=O)c2ccccn2)sc1S(=O)(=O)Cc1cccc(Cl)c1F
42 | 486 | Cc1nc(NC(=O)c2ccccn2)sc1S(=O)(=O)Cc1ccc(Cl)cc1
43 | 463 | O=C(Nc1nc(CF)c(S(=O)(=O)Cc2c(F)cccc2F)s1)c1ccccn1
44 | 450 | CCc1nc(NC(=O)c2ccccn2)sc1S(=O)(=O)Cc1ccc(C)cc1
45 | 445 | Cc1ccc(CS(=O)(=O)c2sc(NC(=O)c3ccccn3)nc2C)cc1
46 | 401 | O=C(Nc1nc(C(F)(F)F)c(S(=O)(=O)Cc2ccccc2F)s1)c1ccccn1
47 | 398 | O=C(Nc1ncc(S(=O)(=O)Cc2ccccc2F)s1)c1ccccn1
48 | 354 | CCc1nc(NC(=O)c2ccccn2)sc1S(=O)(=O)Cc1c(C)cc(C)cc1C
49 | 322 | Cc1nc(NC(=O)c2ccccn2)sc1S(=O)(=O)Cc1cc(F)c(F)cc1F
50 | 316 | CC(C)c1nc(NC(=O)c2ccccn2)sc1S(=O)(=O)Cc1c(F)cccc1F
51 | 312 | Cc1nc(NC(=O)c2ccccn2)sc1S(=O)(=O)Cc1c(F)cccc1F
52 | 294 | CCc1nc(NC(=O)c2ccccn2)sc1S(=O)(=O)Cc1ccc(Cl)cc1F
53 | 289 | Cc1nc(NC(=O)c2ccccn2)sc1S(=O)(=O)Cc1ccc(Cl)cc1Cl
54 | 271 | O=C(Nc1nc(C(F)(F)F)c(S(=O)(=O)Cc2ccccc2Cl)s1)c1ccccn1
55 | 255 | Cc1nc(NC(=O)c2ccccn2)sc1S(=O)(=O)Cc1ccc(Cl)cc1F
56 | 249 | O=C(Nc1nc(C2CC2)c(S(=O)(=O)Cc2ccccc2F)s1)c1ccccn1
57 | 192 | Cc1nc(NC(=O)c2ccccn2)sc1S(=O)(=O)Cc1c(F)cccc1Cl
58 | 181 | O=C(Nc1nc(C(F)(F)F)c(S(=O)(=O)Cc2ccc(Cl)cc2F)s1)c1ccccn1
59 | 170 | O=C(Nc1ncc(S(=O)(=O)Cc2c(F)cccc2F)s1)c1ccccn1
60 | 141 | CCc1nc(NC(=O)c2ccccn2)sc1S(=O)(=O)Cc1c(F)cccc1Cl
61 | 139 | CCc1nc(NC(=O)c2ccccn2)sc1S(=O)(=O)Cc1c(F)cccc1F
62 | 117 | Cc1nc(NC(=O)c2ccccn2)sc1S(=O)(=O)Cc1c(Cl)cccc1Cl
63 | 88 | CCc1nc(NC(=O)c2ccccn2)sc1S(=O)(=O)Cc1c(Cl)cccc1Cl
64 | 49.9 | O=C(Nc1ncc(S(=O)(=O)Cc2ccc(Cl)cc2Cl)s1)c1ccccn1
65 | 44.1 | O=C(Nc1ncc(S(=O)(=O)Cc2ccc(Cl)cc2F)s1)c1ccccn1
